The nature of data set [1]: Same desulfurative C-C cyclisation as series A (TCEP, Ir photocatalyst, blue light) with N-terminal Cys and C-terminal allylglycine (reversed pentapeptides). The following applies: the molecule shown is the open-chain precursor; 17-membered ring; 6 M Gdn.HCl, 0.1 M Na2HPO4 pH 7.5-8.0 / MeCN 9:1; 0.5 mM; 25.0 °C.
Data set [2] is described as follows: C(sp3)-C(sp3) bond formation by visible-light-mediated Cys desulfurisation: alanyl radical adds to terminal alkene of allylglycine (or O-allyl Ser, pentenylGly, acrylamide); TCEP 50 eq (25 mM), (Ir[dF(CF3)ppy]2(dtbpy))PF6 1 mol%, 450 nm blue LED; unprotected peptides. The following applies: 6 M Gdn.HCl, 0.1 M Na2HPO4 pH 7.5-8.0 / MeCN 9:1, 0.5 mM, 25.0 °C.

Compound `C=CC[C@H](NC(=O)[C@H](CCC(=O)O)NC(=O)[C@H](Cc1ccccc1)NC(=O)[C@H](C)NC(=O)[C@H](CS)NC(C)=O)C(N)=O` [Ac-Cys-Ala-Phe-Glu-(allylGly)-NH2] had a ring closure, conversion by HPLC in data set [1] of 0%.
Regarding `C=CC[C@H](NC(=O)[C@H](CCSC)NC(=O)[C@H](Cc1ccc(O)cc1)NC(=O)[C@H](CC(C)C)NC(=O)[C@H](CS)NC(C)=O)C(N)=O` [Ac-Cys-Leu-Tyr-Met-(allylGly)-NH2], in data set [1], the ring closure, conversion by HPLC stood at 21%.
In data set [1], `C=CC[C@H](NC(=O)[C@H](CCC(N)=O)NC(=O)[C@H](Cc1c[nH]cn1)NC(=O)[C@@H](NC(=O)[C@H](CS)NC(C)=O)C(C)C)C(N)=O` [Ac-Cys-Val-His-Gln-(allylGly)-NH2] came in with a ring closure, conversion by HPLC of 28%.
On the same count and under the same terms, the same measure for `C=CC[C@H](NC(=O)[C@H](CCC(N)=O)NC(=O)[C@H](Cc1c[nH]cn1)NC(=O)[C@@H](NC(=O)[C@@H](N)CS)C(C)C)C(N)=O` [H-Cys-Val-His-Gln-(allylGly)-NH2]: 0%; for `C=CC[C@H](NC(=O)[C@H](CCSC)NC(=O)[C@H](Cc1ccc(O)cc1)NC(=O)[C@H](CC(C)C)NC(=O)[C@@H](N)CS)C(N)=O` [H-Cys-Leu-Tyr-Met-(allylGly)-NH2]: 0%.
On to `C=CC[C@H](NC(=O)[C@H](CCCNC(=N)N)NC(=O)[C@H](Cc1c[nH]c2ccccc12)NC(=O)[C@@H](NC(=O)[C@H](CS)NC(C)=O)[C@@H](C)CC)C(N)=O` [Ac-Cys-Ile-Trp-Arg-(allylGly)-NH2], for which the ring closure, conversion by HPLC in data set [1] was found to be 7%.
In turn, `C=CC[C@H](NC(=O)[C@H](CCCCN)NC(=O)[C@@H]1CCCN1C(=O)[C@@H](NC(=O)[C@H](CS)NC(C)=O)[C@@H](C)O)C(N)=O` [Ac-Cys-Thr-Pro-Lys-(allylGly)-NH2] had a ring closure, conversion by HPLC in data set [1] of 0%.
Regarding `C=CC[C@H](NC(=O)[C@H](CCCNC(=N)N)NC(=O)[C@H](Cc1c[nH]c2ccccc12)NC(=O)[C@@H](NC(=O)[C@@H](N)CS)[C@@H](C)CC)C(N)=O` [H-Cys-Ile-Trp-Arg-(allylGly)-NH2], the ring closure, conversion by HPLC in data set [1] came out at 0%.
In data set [1], `C=CC[C@H](NC(=O)[C@H](CCCCN)NC(=O)[C@@H]1CCCN1C(=O)[C@@H](NC(=O)[C@@H](N)CS)[C@@H](C)O)C(N)=O` [H-Cys-Thr-Pro-Lys-(allylGly)-NH2] returned a ring closure, conversion by HPLC of 0%.
Consider `CC[C@H](C)[C@@H]1NC(=O)[C@H](CCCCN)NC(=O)[C@@H](NC(C)=O)CCCC[C@@H](C(N)=O)NC(=O)[C@H](Cc2ccc(O)cc2)NC(=O)[C@H](CO)NC1=O` [Ac-(allylGly)-Lys-Ile-Ser-Tyr-Cys-NH2], for which, in data set [2] (from C=CC[C@H](NC(C)=O)C(=O)N[C@@H](CCCCN)C(=O)N[C@H](C(=O)N[C@@H](CO)C(=O)N[C@@H](Cc1ccc(O)cc1)C(=O)N[C@@H](CS)C(N)=O)[C@@H](C)CC, 20-membered ring), the ring closure, isolated yield was 64%.
As to `CC(=O)N[C@H]1CCCC[C@@H](C(N)=O)NC(=O)[C@H](CCC(N)=O)NC(=O)[C@H](Cc2c[nH]cn2)NC(=O)[C@H](C(C)C)NC1=O` [Ac-(allylGly)-Val-His-Gln-Cys-NH2], the ring closure, isolated yield in data set [2] (from C=CC[C@H](NC(C)=O)C(=O)N[C@H](C(=O)N[C@@H](Cc1c[nH]cn1)C(=O)N[C@@H](CCC(N)=O)C(=O)N[C@@H](CS)C(N)=O)C(C)C, 17-membered ring) turned out to be 59%.
The compound `CSCC[C@@H]1NC(=O)[C@@H]2CCCN2C(=O)[C@H](CCCNC(=N)N)NC(=O)[C@@H](NC(C)=O)CCCC[C@@H](C(N)=O)NC(=O)[C@H](Cc2c[nH]cn2)NC1=O` [Ac-(allylGly)-Arg-Pro-Met-His-Cys-NH2] gave a ring closure, isolated yield in data set [2] (from C=CC[C@H](NC(C)=O)C(=O)N[C@@H](CCCNC(=N)N)C(=O)N1CCC[C@H]1C(=O)N[C@@H](CCSC)C(=O)N[C@@H](Cc1c[nH]cn1)C(=O)N[C@@H](CS)C(N)=O, 20-membered ring) of 48%.
In turn, `CC(=O)N[C@H]1CCCC[C@@H](C(N)=O)NC(=O)[C@H](C(C)C)NC(=O)[C@H](CCCNC(=N)N)NC(=O)[C@@H]2CCCN2C(=O)[C@H](Cc2c[nH]cn2)NC(=O)[C@H](CC(N)=O)NC1=O` [Ac-(allylGly)-Asn-His-Pro-Arg-Val-Cys-NH2] registered a ring closure, isolated yield in data set [2] (from C=CC[C@H](NC(C)=O)C(=O)N[C@@H](CC(N)=O)C(=O)N[C@@H](Cc1c[nH]cn1)C(=O)N1CCC[C@H]1C(=O)N[C@@H](CCCNC(=N)N)C(=O)N[C@H](C(=O)N[C@@H](CS)C(N)=O)C(C)C, 23-membered ring) of 32%.
`NCCCC[C@@H]1NC(=O)[C@H](CC(=O)O)NC(=O)[C@@H](N)CCCC[C@@H](C(N)=O)NC(=O)[C@H](CCC(=O)O)NC(=O)[C@H](Cc2c[nH]cn2)NC(=O)[C@H](CC(N)=O)NC(=O)[C@H](Cc2ccccc2)NC1=O` [H-(allylGly)-Asp-Lys-Phe-Asn-His-Glu-Cys-NH2] came in with a ring closure, isolated yield in data set [2] (from C=CC[C@H](N)C(=O)N[C@@H](CC(=O)O)C(=O)N[C@@H](CCCCN)C(=O)N[C@@H](Cc1ccccc1)C(=O)N[C@@H](CC(N)=O)C(=O)N[C@@H](Cc1c[nH]cn1)C(=O)N[C@@H](CCC(=O)O)C(=O)N[C@@H](CS)C(N)=O, 26-membered ring) of 70%.
In turn, `CSCC[C@@H]1NC(=O)[C@H](Cc2ccc(O)cc2)NC(=O)[C@H](CC(C)C)NC(=O)[C@@H](N)CCCC[C@@H](C(N)=O)NC1=O` [H-(allylGly)-Leu-Tyr-Met-Cys-NH2] had a ring closure, isolated yield in data set [2] (from C=CC[C@H](N)C(=O)N[C@@H](CC(C)C)C(=O)N[C@@H](Cc1ccc(O)cc1)C(=O)N[C@@H](CCSC)C(=O)N[C@@H](CS)C(N)=O, 17-membered ring) of 54%.
Turning to `CC(C)C[C@@H]1NC(=O)[C@H](CC(=O)O)NC(=O)[C@H](CCC(=O)O)NC(=O)[C@@H](N)CCCC[C@@H](C(N)=O)NC(=O)[C@H](CCC(N)=O)NC(=O)[C@H](Cc2ccc(O)cc2)NC(=O)[C@H](Cc2ccccc2)NC1=O` [H-(allylGly)-Glu-Asp-Leu-Phe-Tyr-Gln-Cys-NH2], the ring closure, isolated yield in data set [2] (from C=CC[C@H](N)C(=O)N[C@@H](CCC(=O)O)C(=O)N[C@@H](CC(=O)O)C(=O)N[C@@H](CC(C)C)C(=O)N[C@@H](Cc1ccccc1)C(=O)N[C@@H](Cc1ccc(O)cc1)C(=O)N[C@@H](CCC(N)=O)C(=O)N[C@@H](CS)C(N)=O, 26-membered ring) is 65%.
On to `C[C@@H]1NC(=O)CCC[C@@H](C(N)=O)NC(=O)[C@H](C)NC(=O)[C@H](Cc2ccccc2)NC1=O` [Acryloyl-Ala-Phe-Ala-Cys-NH2], for which the ring closure, isolated yield in data set [2] (from C=CC(=O)N[C@@H](C)C(=O)N[C@@H](Cc1ccccc1)C(=O)N[C@@H](C)C(=O)N[C@@H](CS)C(N)=O, 15-membered ring, 1.0 h) was 0%.
`NC(=O)CC[C@@H]1NC(=O)[C@H](Cc2ccc(O)cc2)NC(=O)[C@H](Cc2ccccc2)NC(=O)[C@@H](NC(=O)[C@@H](N)CC(=O)O)CCCC[C@@H](C(N)=O)NC1=O` [H-Asp-(allylGly)-Phe-Tyr-Gln-Cys-NH2] had a ring closure, isolated yield in data set [2] (from C=CC[C@H](NC(=O)[C@@H](N)CC(=O)O)C(=O)N[C@@H](Cc1ccccc1)C(=O)N[C@@H](Cc1ccc(O)cc1)C(=O)N[C@@H](CCC(N)=O)C(=O)N[C@@H](CS)C(N)=O, 17-membered ring) of 82%.
As to `CC[C@H](C)[C@@H]1NC(=O)[C@@H](NC(C)=O)CCCC[C@@H](C(N)=O)NC(=O)[C@H](CCCNC(=N)N)NC(=O)[C@H](Cc2c[nH]c3ccccc23)NC1=O` [Ac-(allylGly)-Ile-Trp-Arg-Cys-NH2], the ring closure, isolated yield in data set [2] (from C=CC[C@H](NC(C)=O)C(=O)N[C@H](C(=O)N[C@@H](Cc1c[nH]c2ccccc12)C(=O)N[C@@H](CCCNC(=N)N)C(=O)N[C@@H](CS)C(N)=O)[C@@H](C)CC, 17-membered ring) was found to be 59%.
In data set [2] (from C=CC[C@H](N)C(=O)N[C@@H](CCSC)C(=O)N[C@@H](C)C(=O)N[C@@H](CC(C)C)C(=O)N[C@@H](CCC(=O)O)C(=O)N[C@@H](CCCCN)C(=O)N[C@@H](CS)C(N)=O, 23-membered ring), `CSCC[C@@H]1NC(=O)[C@@H](N)CCCC[C@@H](C(N)=O)NC(=O)[C@H](CCCCN)NC(=O)[C@H](CCC(=O)O)NC(=O)[C@H](CC(C)C)NC(=O)[C@H](C)NC1=O` [H-(allylGly)-Met-Ala-Leu-Glu-Lys-Cys-NH2] showed a ring closure, isolated yield of 44%.
In data set [2] (from C=CC[C@H](NC(C)=O)C(=O)N[C@@H](C)C(=O)N[C@@H](Cc1ccccc1)C(=O)N[C@@H](CCC(=O)O)C(=O)N[C@@H](CS)C(N)=O, 17-membered ring), `CC(=O)N[C@H]1CCCC[C@@H](C(N)=O)NC(=O)[C@H](CCC(=O)O)NC(=O)[C@H](Cc2ccccc2)NC(=O)[C@H](C)NC1=O` [Ac-(allylGly)-Ala-Phe-Glu-Cys-NH2] yielded a ring closure, isolated yield of 74%.
The compound `C[C@@H]1NC(=O)[C@H](Cc2ccccc2)NC(=O)[C@H](C)NC(=O)[C@@H](N)COCCCC[C@@H](C(N)=O)NC1=O` [H-Ser(OAllyl)-Ala-Phe-Ala-Cys-NH2] returned a ring closure, isolated yield in data set [2] (from C=CCOC[C@H](N)C(=O)N[C@@H](C)C(=O)N[C@@H](Cc1ccccc1)C(=O)N[C@@H](C)C(=O)N[C@@H](CS)C(N)=O, 19-membered ring, 1.0 h) of 78%.
